Data set [1] is described as follows: Absorption isotherm: partial pressure of 2,2,2-trifluoroethanol over sorbent material at 70° C. In kind it is physicochemical. An excerpt: Absorption isotherms result from the amount of a volatile component (here the refrigerant) which, at a predetermined temperature and at pressures which are generally lower than the vapor pressure of the pure refrigerant; dissolves, in an equilibrium state, in a very high-boiling or nonvolatile liquid (here the sorbent material). The pairs of values of concentration of the liquid binary mixture and the pressure of the volatile component over the liquid at a given temperature thereby give an absorption isotherm. […] In the absorption refrigerating machines considered here, a sorbent material shall absorb the refrigerant after its expansion and vaporization at a low pressure. An advantageous sorbent material, at a given pressure, takes up as much refrigerant as possible, whereupon the volume and the masses of the circulating streams minimize (or lower pressure for the same composition). This leads to the fact that the unit achieves a higher degree of efficiency and can be more advantageous with respect to its dimensions and also the amount of absorber used.
The measurements were carried out at 70° C.

Data set [2] is described as follows: Absorption isotherm: partial pressure of R134a over sorbent material at 20° C. In kind it is physicochemical. From the text:
Absorption isotherms result from the amount of a volatile component (here the refrigerant) which, at a predetermined temperature and at pressures which are generally lower than the vapor pressure of the pure refrigerant; dissolves, in an equilibrium state, in a very high-boiling or nonvolatile liquid (here the sorbent material). The pairs of values of concentration of the liquid binary mixture and the pressure of the volatile component over the liquid at a given temperature thereby give an absorption isotherm. Such absorption isotherms of high-boiling or nonvolatile liquid substances can be measured using various dynamic or static experimental methods of which, here, by way of example reference is made to a dynamic, gravimetric method, as was presented by Sadowski G., Mokrushina L. V., Arlt, W., “Finite and infinite dilution activity coefficients in polycarbonate systems”, Fluid Phase Equilibria, 139 (1997) 391-493. In the absorption refrigerating machines considered here, a sorbent material shall absorb the refrigerant after its expansion and vaporization at a low pressure. An advantageous sorbent material, at a given pressure, takes up as much refrigerant as possible, whereupon the volume and the masses of the circulating streams minimize (or lower pressure for the same composition). This leads to the fact that the unit achieves a higher degree of efficiency and can be more advantageous with respect to its dimensions and also the amount of absorber used.
The measurements were carried out at 20° C.

The conditions of data set [3]: as described by N. Bicak; cited from earlier work.
For data set [4] the following is noted: 25° C.; as described by N. Bicak; cited from earlier work.
Source text in data set [5]: If, as described in • W. Pennington; How to find accurate vapor pressures of lithium bromide water solutions; Refrig. Eng. 63 (May 1955) 57-61 or • D. A. Boryta, A. J. Maas, C. B. Grant; Vapor pressure-temperature-concentration relationship for system lithium bromide and water (40-70% lithium bromide); J. Chem. Eng. Data 20 (1975) 316-319 or • S. Iyoki, T. Uemura; Vapor pressure of the water-lithium bromide system and water-lithium bromide-zinc bromide-lithium chloride system at high temperatures; Int. […] In the prior art, the use of LiBr as absorbent and water as refrigerant is very widespread.
(§1) If, as described in • W. Pennington; How to find accurate vapor pressures of lithium bromide water solutions; Refrig. Eng. 63 (May 1955) 57-61 or • D. A. Boryta, A. J. Maas, C. B. Grant; Vapor pressure-temperature-concentration relationship for system lithium bromide and water (40-70% lithium bromide); J. Chem. Eng. Data 20 (1975) 316-319 or • S. Iyoki, T. Uemura; Vapor pressure of the water-lithium bromide system and water-lithium bromide-zinc bromide-lithium chloride system at high temperatures; Int.
as §1, with “Ethoxylated cocodiethanolammonium chloride is an ionic liquid which can be obtained under the name TEGO IL K5 from Degussa AG. If,” for “If,”
as §1, with “The ionic liquid diethylpolypropoxymethylammonium chloride can be obtained from Degussa AG under the name TEGO IL P9. If,” for “If,”
as §1

The nature of data set [6]: Crystallization of the sorbent in water. The conditions noted are these: T≧20° C.; concentrations greater than 65 mass % ionic liquid in water. In kind it is physicochemical.
The conditions of data set [7]: in vivo; cited from earlier work.
The conditions of data set [8]: depending on system temperature; prior art; cited from earlier work.
Setting [9] is: mass fraction of ionic liquid 0.20.
[10] abbreviates: mass fraction of ionic liquid 0.40.
Where [11] appears, read: mass fraction of ionic liquid 0.60.
[12] abbreviates: mass fraction of ionic liquid 0.80.
Where [13] appears, read: mass fraction of the sorbent material 0.20.
The mark [14] stands for this setting: mass fraction of the sorbent material 0.40.
[15] abbreviates: mass fraction of the sorbent material 0.60.
The mark [16] stands for this setting: mass fraction of the sorbent material 0.80.
Where [17] appears, read: 20° C., 80 mass % ionic liquid and 20 mass % water.
Where [18] appears, read: 20° C., 80 mass % ionic liquid and 20 mass % water, pure water 23.37 mbar.
Where [19] appears, read: 40° C., 92 mass % ionic liquid and 8 mass % water.

Read-outs that look alike come from different tables or passages of the source.

For the compound “1,3-dimethylimidazolium dimethyl phosphate [MMIM MMPO4]”, the “Partial pressure of 2,2,2-trifluoroethanol” value in data set [1] (setting [9]) is 39.7 kPa; in data set [1] (setting [10]), 10.7 kPa; in [1] (setting [11]), 3.2 kPa; in data set [1] (setting [12]), 0.8 kPa. Besides, the “Partial pressure of R134a” value in data set [2] (setting [13]) is listed as 439 kPa; in data set [2] (setting [14]), 303 kPa; in data set [2] (setting [15]), 164 kPa; in data set [2] (setting [16]) it was 57 kPa.
Turning to `NCCO.O=CO` [2-Hydroxyethylammonium formate], the “thermal stability, upper temperature” value in data set [3] was “up to 150 °C”. Further, the vapor pressure in data set [4] was 2.2×10^−2 torr. For the same compound, the stability to hydrolysis entry in the data set “Stability to hydrolysis” is recorded as “comparatively poor stability to hydrolysis”.
`CCCCn1cc[n+](C)c1.F[B-](F)(F)F` [BMIM BF4, 1-butyl-3-methylimidazolium tetrafluoroborate, reference compound]: the “Partial pressure of 2,2,2-trifluoroethanol” value in [1] (setting [9]) came out at 70.2 kPa; in data set [1] (setting [10]), 53.0 kPa; in data set [1] (setting [11]), 35.9 kPa; in data set [1] (setting [12]), 18.0 kPa.
As to `CCCCn1cc[n+](C)c1.[Br-]` [BMIM Br, 1-butyl-3-methylimidazolium bromide, reference compound], the “Partial pressure of 2,2,2-trifluoroethanol” value in data set [1] (setting [9]) worked out at 42.2 kPa; in data set [1] (setting [10]), 15.1 kPa; in [1] (setting [11]) it was 5.6 kPa; in data set [1] (setting [12]) it was 1.6 kPa.
Take `CCn1cc[n+](C)c1.[Cl-]` [EMIM Cl]: the “Partial pressure of 2,2,2-trifluoroethanol” value in data set [1] (setting [9]) is given as 19.3 kPa; in data set [1] (setting [10]), 4.0 kPa; in data set [1] (setting [11]), 1.0 kPa; in data set [1] (setting [12]) it was 0.2 kPa. For the same compound, the “Partial pressure of R134a” value turned out to be 327 kPa in data set [2] (setting [13]), 135 kPa in data set [2] (setting [14]), 37 kPa in data set [2] (setting [15]) and 7 kPa in [2] (setting [16]).
For `CCn1cc[n+](C)c1` [EMIM EtSO4], the “Partial pressure of R134a” value in [2] (setting [13]) was 360 kPa. Besides, the water partial pressure in data set [5] (setting [17]) was determined as 15 mbar. Also, the “factor by which the vapor pressure of pure water was lowered” value (“factor … of pure water was lowered” below) in [5] (setting [18]) is 1.56. In addition, the crystallization in water entry in [6] was “does not crystallize out”. For the same compound, the LD50 – broadly, the dose expected to kill half of the subjects tested – in data set [7] is recorded as over 2000 mg/kg.
For the compound `CCn1cc[n+](C)c1.CS(=O)(=O)[O-]` [EMIM MeSO3], the “Partial pressure of 2,2,2-trifluoroethanol” value in data set [1] (setting [9]) is listed as 39.7 kPa; in data set [1] (setting [10]), 13.5 kPa; in [1] (setting [11]), 4.6 kPa; in data set [1] (setting [12]), 1.2 kPa. In [5] (30° C., 87 mass % ionic liquid and 13 mass % water), this compound had a water partial pressure of 9 mbar. Besides, the “factor … of pure water was lowered” value in data set [5] (30° C., 87 mass % ionic liquid and 13 mass % water, pure water 42.41 mbar) is 4.7. For the same compound, the crystallization in water result in data set [6] is reported as “does not crystallize out”.
Consider `CC(=O)[O-].CCn1cc[n+](C)c1` [EMIM OAc], for which the “Partial pressure of 2,2,2-trifluoroethanol” value in data set [1] (setting [9]) worked out at 24.7 kPa; in data set [1] (setting [10]), 3.7 kPa; in data set [1] (setting [11]) it was 0.8 kPa; in [1] (setting [12]), 0.2 kPa. Besides, the “Partial pressure of R134a” value was 360 kPa in data set [2] (setting [13]), 175 kPa in data set [2] (setting [14]), 66 kPa in data set [2] (setting [15]) and 17 kPa in data set [2] (setting [16]).
Regarding `CCn1cc[n+](C)c1.[OH-]` [EMIM OH], the “Partial pressure of 2,2,2-trifluoroethanol” value in [1] (setting [9]) is reported as 5.0 kPa; in data set [1] (setting [10]), under 0.1 kPa; in [1] (setting [11]), under 0.1 kPa; in data set [1] (setting [12]), under 0.1 kPa. Besides, the “Partial pressure of R134a” value came out at 345 kPa in data set [2] (setting [13]), 112 kPa in data set [2] (setting [14]), 20 kPa in [2] (setting [15]) and 3 kPa in data set [2] (setting [16]).
Turning to `[Br-].[Li+]` [LiBr, lithium bromide], in data set [8], the “LiBr concentration above which LiBr crystallizes in water” value is on record as “above 60 mass %”.
As for `CCCC[n+]1ccc(C)cc1.[Cl-]` [MBP Cl, 1-butyl-4-methylpyridinium chloride], the “Partial pressure of 2,2,2-trifluoroethanol” value was found to be 25.2 kPa in data set [1] (setting [9]), 5.0 kPa in [1] (setting [10]), 1.3 kPa in data set [1] (setting [11]) and 0.3 kPa in data set [1] (setting [12]).
Take `C[N+](C)(CCO)CCO.[Cl-]` [Salt A, bis(2-hydroxyethyl)dimethylammonium chloride]: the “Partial pressure of 2,2,2-trifluoroethanol” value is given as 33.0 kPa in data set [1] (setting [9]), 11.1 kPa in [1] (setting [10]), 3.6 kPa in data set [1] (setting [11]) and 0.7 kPa in data set [1] (setting [12]).
Regarding `CS(=O)(=O)[O-].C[N+](C)(CCO)CCO` [Salt B, bis(2-hydroxyethyl)dimethylammonium methylsulfonate], the figures for the “Partial pressure of 2,2,2-trifluoroethanol” value in data set [1] (setting [9]) and in data set [1] (setting [12]) were 42.0 kPa and 1.6 kPa, respectively. The water partial pressure is recorded as 14 mbar in [5] (setting [17]) and “approximately 13.9 mbar” in [5] (setting [19]). In data set [5] (setting [19]), the “pressure reduction factor compared with the vapor pressure of pure water” value is given as 5.3. Moreover, the crystallization in water result in data set [6] is “does not crystallize out”.
In data set [5] (30° C., 94 mass % ionic liquid and 6 mass % water), “diethylpolypropoxymethylammonium chloride [TEGO IL P9]” showed a water partial pressure of 6 mbar. Further, the “factor by which the vapor pressure of pure water was decreased” value in [5] (30° C., 94 mass % ionic liquid and 6 mass % water, pure water 42.41 mbar) is recorded as 7.07. The crystallization in water result in data set [6] is “does not crystallize out”.
Consider “ethoxylated cocodiethanolammonium chloride [TEGO IL K5]”, for which the water partial pressure in data set [5] (setting [17]) is reported as 17 mbar. Besides, in data set [5] (setting [18]), the “factor … of pure water was lowered” value was determined as 1.38. In addition, the crystallization in water result in data set [6] was “does not crystallize out”.
